# Measured values taken from ChEMBL document CHEMBL6127017, “Regulation of exercise ability and glycolipid metabolism by synthetic SR9009 analogues as new REV-ERB-α agonists” (Bioorg Med Chem, 2024).
# How the values were obtained:
# [1] = test system: HEK293; experiment: Agonist activity at Flag-tagged REV-ERBalpha (unknown origin) expressed in HEK293 cells co-expressing BMAL1 (unknown origin) assessed as relative strength index by measuring ratio of inhibitory rate of BMAL1 incubated for 24 hrs by Dual Glo-Luciferase assay relative to SR9009; format: cell-based; conditions: Homo sapiens
# [2] = Agonist activity at Flag-tagged REV-ERBalpha (unknown origin) expressed in HEK293 cells co-expressing BMAL1 (unknown origin) inhibition of BMAL1 incubated for 24 hrs by Dual Glo-Luciferase assay; format: cell-based; conditions: Homo sapiens, HEK293, 24 h
# [3] = Cytotoxicity against MDCK cells; format: toxicity, cell-based, Canis lupus familiaris; conditions: dog, read-out: TC50 (the source's name)
# [4] = Metabolic stability in human liver microsomes assessed as half life at 1 uM incubated upto 60 mins by LC-MS/MS analysis; format: ADME, Microsome
# [5] = Metabolic stability in human liver microsomes assessed as intrinsic clearance at 1 uM incubated upto 60 mins by LC-MS/MS analysis; format: ADME, Microsome; conditions: read-out: CLH
# [6] = Metabolic stability in human liver microsomes assessed as hepatic extraction ratio at 1 uM incubated upto 60 mins by LC-MS/MS analysis; format: ADME, Microsome; conditions: read-out: ERH
# [7] = test system: Mus musculus; experiment: Effect on exercise tolerance in high-fat diet-induced obese C57BL/6 mouse assessed as total running time at 200 mg/kg, IG for 7 days (reference value: 2954.50 sec); format: functional; conditions: time 7 day
# [8] = test system: Mus musculus; experiment: Effect on exercise tolerance in high-fat diet-induced obese C57BL/6 mouse assessed as total running distance at 200 mg/kg, IG for 7 days; format: functional; conditions: time 7 day
# [9] = test system: Mus musculus; experiment: Effect on blood lipid level in high-fat diet-induced obese C57BL/6 mouse assessed as decrease in blood glucose level at 200 mg/kg, IG for 7 days (reference value: 10.77 mmol/L); format: functional; conditions: time 7 day
# [10] = test system: Mus musculus; experiment: Effect on blood lipid level in high-fat diet-induced obese C57BL/6 mouse assessed as total cholesterol level at 200 mg/kg, IG for 7 days (reference value: 4.69 mmol/L); format: functional; conditions: time 7 day
# [11] = test system: Mus musculus; experiment: Effect on blood lipid level in high-fat diet-induced obese C57BL/6 mouse assessed as triglyceride level at 200 mg/kg, IG for 7 days (reference value: 2.07 mmol/L); format: functional; conditions: time 7 day
# [12] = test system: Mus musculus; experiment: Effect on exercise tolerance in normal diet-fed C57BL/6 mouse assessed as total running distance at 200 mg/kg, IG for 3 days (reference value: 2183.20 meter); format: functional; conditions: time 3 day
# [13] = test system: Mus musculus; experiment: Effect on exercise tolerance in normal diet-fed C57BL/6 mouse assessed as total running time at 200 mg/kg, IG for 3 days (reference value: 7002.00 sec); format: functional; conditions: time 3 day
# [14] = Metabolic stability in human liver microsomes assessed as compound remaining at 1 uM measured immediately in presence of NADPH/UDPGA by LC-MS/MS analysis; format: ADME, Microsome; conditions: read-out: Stability
# [15] = Metabolic stability in human liver microsomes assessed as compound remaining at 1 uM measured after 15 mins in presence of NADPH/UDPGA by LC-MS/MS analysis; format: ADME, Microsome; conditions: read-out: Stability
# [16] = Metabolic stability in human liver microsomes assessed as compound remaining at 1 uM measured after 30 mins in presence of NADPH/UDPGA by LC-MS/MS analysis; format: ADME, Microsome; conditions: read-out: Stability
# [17] = Metabolic stability in human liver microsomes assessed as compound remaining at 1 uM measured after 45 mins in presence of NADPH/UDPGA by LC-MS/MS analysis; format: ADME, Microsome; conditions: read-out: Stability
# [18] = Metabolic stability in human liver microsomes assessed as compound remaining at 1 uM measured after 60 mins in presence of NADPH/UDPGA by LC-MS/MS analysis; format: ADME, Microsome; conditions: read-out: Stability
# [19] = Metabolic stability in human liver microsomes assessed as compound remaining at 1 uM measured immediately by LC-MS/MS analysis; format: ADME, Microsome; conditions: read-out: Stability
# [20] = Metabolic stability in human liver microsomes assessed as compound remaining at 1 uM measured after 15 mins by LC-MS/MS analysis; format: ADME, Microsome; conditions: read-out: Stability
# [21] = Metabolic stability in human liver microsomes assessed as compound remaining at 1 uM measured after 30 mins by LC-MS/MS analysis; format: ADME, Microsome; conditions: read-out: Stability
# [22] = Metabolic stability in human liver microsomes assessed as compound remaining at 1 uM measured after 45 mins by LC-MS/MS analysis; format: ADME, Microsome; conditions: read-out: Stability
# [23] = Metabolic stability in human liver microsomes assessed as compound remaining at 1 uM measured after 60 mins by LC-MS/MS analysis; format: ADME, Microsome; conditions: read-out: Stability
structure (smiles),measurement,setting,value
O=C(C1CC1)N1CCC(CN(Cc2ccc([N+](=O)[O-])s2)Cc2ccc(F)cc2Cl)C1 (stereo not drawn),Ratio,[1]; filed as agonist,89.4%
same,EC50,[2],8.31 µM
same,CC50,[3],38.5 µM
CC(F)C(=O)N1CCC(CN(Cc2ccc(Cl)cc2)Cc2ccc([N+](=O)[O-])s2)C1 (stereo not drawn),Ratio,[1]; filed as agonist,85.4%
O=C(C1CC1)N1CCC(CN(Cc2ccc3c(c2)OCO3)Cc2ccc([N+](=O)[O-])s2)C1 (stereo not drawn),Ratio,[1]; filed as agonist,70.7%
same,CC50,[3],15.4 µM
O=C(C1CC1)N1CCC(CN(Cc2ccc([N+](=O)[O-])s2)Cc2c(F)cccc2Cl)C1 (stereo not drawn),Ratio,[1],30.2%
O=C(C1CC1)N1CCC(CN(Cc2ccc([N+](=O)[O-])s2)Cc2ccc(F)cc2F)C1 (stereo not drawn),Ratio,[1]; filed as agonist,98.2%
same,EC50,[2],4.93 µM
same,CC50,[3],38.5 µM
same,half-life at 1 µM,[4],2.3 min
same,microsomal CLint at 1 µM,[5],601 µL/min/mg
same,"hepatic extraction ratio at 1 h, 1 µM",[6],0.97
same,Time,[7],5805 s
same,Activity,[8],1042.52 m
same,Activity,[9],6.79 mmol/L
same,Activity,[10],3.83 mmol/L
same,Activity,[11],1.04 mmol/L
same,Activity,[12],2843.74 m
same,Time,[13],9087.88 s
same,"remaining at 0 min, 1 µM",[14],100%
same,"remaining at 0.25 h, 1 µM",[15],1.1%
same,"remaining at 0.5 h, 1 µM",[16],0.23%
same,"remaining at 0.75 h, 1 µM",[17],0.16%
same,"remaining at 1 h, 1 µM",[18],0.07%
same,"remaining at 0 min, 1 µM",[19],100%
same,"remaining at 0.25 h, 1 µM",[20],106%
same,"remaining at 0.5 h, 1 µM",[21],103%
same,"remaining at 0.75 h, 1 µM",[22],105%
same,"remaining at 1 h, 1 µM",[23],108%
O=C(c1ccco1)N1CCC(CN(Cc2ccc(Cl)cc2)Cc2ccc([N+](=O)[O-])s2)C1 (stereo not drawn),Ratio,[1]; filed as agonist,126%
same,EC50,[2],7.15 µM
same,Time,[7],4165.38 s
same,Activity,[8],836.67 m
C=CC(=O)N1CCC(CN(Cc2ccc(Cl)cc2)Cc2ccc([N+](=O)[O-])s2)C1 (stereo not drawn),Ratio,[1]; filed as agonist,125%
same,EC50,[2],8.65 µM
same,Time,[7],4516.75 s
same,Activity,[8],910.9 m
O=C(C1CC1)N1CCC(CN(Cc2cc(Cl)cc(Cl)c2)Cc2ccc([N+](=O)[O-])s2)C1 (stereo not drawn),Ratio,[1]; filed as agonist,64.7%
same,CC50,[3],12.8 µM
C=CC(=O)N1CCC(CN(Cc2ccc(F)cc2)Cc2ccc([N+](=O)[O-])s2)C1 (stereo not drawn),Ratio,[1]; filed as agonist,61.2%
O=C(c1ccc(Br)o1)N1CCC(CN(Cc2ccc(Cl)cc2)Cc2ccc([N+](=O)[O-])s2)C1 (stereo not drawn),Ratio,[1]; filed as agonist,120%
same,EC50,[2],8.29 µM
same,Time,[7],4130 s
same,Activity,[8],797.96 m
O=C(NS(=O)(=O)N1CCC(CN(Cc2ccc(Cl)cc2)Cc2ccc([N+](=O)[O-])s2)C1)OCC1CCCC1 (stereo not drawn),Ratio,[1],34.3%
O=C(NS(=O)(=O)N1CCC(CN(Cc2ccc(Cl)cc2)Cc2ccc([N+](=O)[O-])s2)C1)OCC1CC1 (stereo not drawn),Ratio,[1]; filed as agonist,63%
CC1CCC(N(Cc2ccc([N+](=O)[O-])s2)CC2CCN(C(=O)OC(C)(C)C)C2)CC1 (stereo not drawn),Ratio,[1],26.8%
O=C(C1CC1)N1CCC(CN(Cc2cccc(Cl)c2)Cc2ccc([N+](=O)[O-])s2)C1 (stereo not drawn),Ratio,[1]; filed as agonist,51%
same,CC50,[3],22.2 µM
O=C(Cc1cccs1)N1CCC(CN(Cc2ccc(Cl)cc2)Cc2ccc([N+](=O)[O-])s2)C1 (stereo not drawn),Ratio,[1]; filed as agonist,121%
same,EC50,[2],8.88 µM
same,Time,[7],3726.88 s
same,Activity,[8],686.85 m
O=C(C1CC1)N1CCC(CN(Cc2ccc(Cl)c(Cl)c2)Cc2ccc([N+](=O)[O-])s2)C1 (stereo not drawn),Ratio,[1]; filed as agonist,84.8%
same,EC50,[2],5.99 µM
same,CC50,[3],10.7 µM
same,half-life at 1 µM,[4],3.37 min
same,microsomal CLint at 1 µM,[5],411 µL/min/mg
same,"hepatic extraction ratio at 1 h, 1 µM",[6],0.96
same,Time,[7],5011.38 s
same,Activity,[8],1061.4 m
same,Activity,[9],6.82 mmol/L
same,Activity,[10],4.5 mmol/L
same,Activity,[11],1.12 mmol/L
same,Activity,[12],3115.39 m
same,Time,[13],10034.25 s
same,"remaining at 0 min, 1 µM",[14],100%
same,"remaining at 0.25 h, 1 µM",[15],4.6%
same,"remaining at 0.5 h, 1 µM",[16],0.91%
same,"remaining at 0.75 h, 1 µM",[17],0.3%
same,"remaining at 1 h, 1 µM",[18],0.15%
same,"remaining at 0 min, 1 µM",[19],100%
same,"remaining at 0.25 h, 1 µM",[20],93.2%
same,"remaining at 0.5 h, 1 µM",[21],108%
same,"remaining at 0.75 h, 1 µM",[22],93.3%
same,"remaining at 1 h, 1 µM",[23],90.1%
O=C(C1CC1)N1CCC(CN(Cc2ccc(Cl)cc2)Cc2ccc([N+](=O)[O-])s2)C1 (stereo not drawn),Ratio,[1]; filed as agonist,55%
COc1cccc(CN(Cc2ccc([N+](=O)[O-])s2)CC2CCN(C(=O)C3CC3)C2)c1 (stereo not drawn),Ratio,[1]; filed as agonist,64.5%
same,CC50,[3],15.4 µM
COc1ccccc1CN(Cc1ccc([N+](=O)[O-])s1)CC1CCN(C(=O)C2CC2)C1 (stereo not drawn),Ratio,[1],5.77%
same,CC50,[3],38.5 µM
O=C(CC1CC1)N1CCC(CN(Cc2ccc(Cl)cc2)Cc2ccc([N+](=O)[O-])s2)C1 (stereo not drawn),Ratio,[1]; filed as agonist,73.2%
O=C(C1CC1)N1CCC(CN(Cc2cccc(Br)c2)Cc2ccc([N+](=O)[O-])s2)C1 (stereo not drawn),Ratio,[1]; filed as agonist,89.8%
same,CC50,[3],15.4 µM
CCOC(=O)N1CCC(CN(Cc2ccc(Cl)cc2)Cc2ccc([N+](=O)[O-])s2)C1 (stereo not drawn) [SR9009],EC50,[2],8.57 µM
same,CC50,[3],38.5 µM
same,half-life at 1 µM,[4],2.23 min
same,microsomal CLint at 1 µM,[5],622 µL/min/mg
same,"hepatic extraction ratio at 1 h, 1 µM",[6],0.97
same,Time,[7],5428.38 s
same,Activity,[8],1177.69 m
same,Activity,[9],9.46 mmol/L
same,Activity,[10],4.03 mmol/L
same,Activity,[11],1.07 mmol/L
same,Activity,[12],3121.42 m
same,Time,[13],9908.5 s
same,"remaining at 0 min, 1 µM",[14],100%
same,"remaining at 0.25 h, 1 µM",[15],0.94%
same,"remaining at 0.5 h, 1 µM",[16],0.04%
same,"remaining at 0.75 h, 1 µM",[17],0.08%
same,"remaining at 1 h, 1 µM",[18],0.06%
same,"remaining at 0 min, 1 µM",[19],100%
same,"remaining at 0.25 h, 1 µM",[20],85.6%
same,"remaining at 0.5 h, 1 µM",[21],98.5%
same,"remaining at 0.75 h, 1 µM",[22],85.6%
same,"remaining at 1 h, 1 µM",[23],103%
COc1ccc(CN(Cc2ccc([N+](=O)[O-])s2)CC2CCN(C(=O)C3CC3)C2)cc1OC (stereo not drawn),Ratio,[1]; filed as agonist,43.4%
same,CC50,[3],32 µM
O=C(C1CCC1)N1CCC(CN(Cc2ccc(Cl)cc2)Cc2ccc([N+](=O)[O-])s2)C1 (stereo not drawn),Ratio,[1]; filed as agonist,116%
same,EC50,[2],9.21 µM
same,Time,[7],3159 s
same,Activity,[8],572.8 m
